Laboratory results taken from ChEMBL document CHEMBL4359887, “Hitting on the move: Targeting intrinsically disordered protein states of the MDM2-p53 interaction” (Eur J Med Chem, 2019).

Assays:
Protein Mdm4 = target: T1, Protein Mdm4 (Homo sapiens, UniProt O15151)
T1 sequence (O15151 whole entry): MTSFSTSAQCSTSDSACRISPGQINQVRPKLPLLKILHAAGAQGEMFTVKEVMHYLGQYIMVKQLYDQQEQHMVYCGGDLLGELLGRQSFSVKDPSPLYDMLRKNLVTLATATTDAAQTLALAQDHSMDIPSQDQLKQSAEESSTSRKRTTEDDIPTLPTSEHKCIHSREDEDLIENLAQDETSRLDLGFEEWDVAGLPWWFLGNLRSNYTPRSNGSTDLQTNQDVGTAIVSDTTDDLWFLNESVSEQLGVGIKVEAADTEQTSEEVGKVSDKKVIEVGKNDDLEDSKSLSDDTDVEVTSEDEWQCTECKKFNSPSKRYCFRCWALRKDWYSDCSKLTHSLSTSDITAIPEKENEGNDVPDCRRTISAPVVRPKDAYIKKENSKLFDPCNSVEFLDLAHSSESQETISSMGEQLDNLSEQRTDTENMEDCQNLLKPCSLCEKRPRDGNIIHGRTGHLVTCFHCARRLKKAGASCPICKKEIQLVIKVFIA

[1] = target: E3 ubiquitin-protein ligase Mdm2 (Homo sapiens, UniProt Q00987)
HCT-116 [2] = assay: Induction of apoptosis in human HCT116 cells expressing wild type p53 assessed as live cells at 20 uM measured after 72 hrs by annexin V-FITC/propidium iodide staining-based flow cytometry analysis (reference value: 83.7 %); type: functional
HCT-116 [3] = assay: Induction of apoptosis in human HCT116 cells expressing wild type p53 assessed as necrotic cells at 20 uM measured after 72 hrs by annexin V-FITC/propidium iodide staining-based flow cytometry analysis (reference value: 0.7 %); type: functional
HCT-116 [4] = assay: Induction of apoptosis in human HCT116 cells assessed as late apoptotic cells expressing wild type p53 at 20 uM measured after 72 hrs by annexin V-FITC/propidium iodide staining-based flow cytometry analysis (reference value: 6.8 %); type: functional
HCT-116 [5] = assay: Induction of apoptosis in human HCT116 cells expressing wild type p53 assessed as early apoptotic cells expressing wild type p53 at 20 uM measured after 72 hrs by annexin V-FITC/propidium iodide staining-based flow cytometry analysis (reference value: 8.8 %); type: functional
SAOS-2 = assay: Anticancer activity against p53-deleted human Saos2 cells assessed as inhibition of cell viability measured after 5 days by MTT assay; details: SAOS-2, 120 h
U2OS = assay: Anticancer activity against human U2OS cells expressing wild-type p53 assessed as inhibition of cell viability measured after 5 days by MTT assay; details: 120 h

E3 ubiquitin-protein ligase Mdm2, sequence (Q00987 whole entry): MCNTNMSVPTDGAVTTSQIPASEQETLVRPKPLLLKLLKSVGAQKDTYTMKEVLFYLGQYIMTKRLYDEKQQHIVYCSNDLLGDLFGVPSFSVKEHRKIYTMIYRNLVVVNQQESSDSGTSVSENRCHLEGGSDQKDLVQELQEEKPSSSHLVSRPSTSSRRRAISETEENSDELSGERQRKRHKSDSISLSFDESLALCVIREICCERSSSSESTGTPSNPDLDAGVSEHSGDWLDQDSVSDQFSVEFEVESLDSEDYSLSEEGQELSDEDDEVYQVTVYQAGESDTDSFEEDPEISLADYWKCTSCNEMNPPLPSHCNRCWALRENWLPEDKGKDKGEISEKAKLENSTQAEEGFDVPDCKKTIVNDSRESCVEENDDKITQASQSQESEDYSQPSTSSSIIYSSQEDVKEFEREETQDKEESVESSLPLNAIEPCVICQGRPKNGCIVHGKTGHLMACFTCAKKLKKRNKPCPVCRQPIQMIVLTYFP

| SMILES | Ki (Protein Mdm4) | Ki [1] | Activity (HCT-116 [2]) [%] | Activity (HCT-116 [3]) [%] | Activity (HCT-116 [4]) [%] | Activity (HCT-116 [5]) [%] | EC50 (SAOS-2) [µM] | EC50 (U2OS) [µM] |
| --- | --- | --- | --- | --- | --- | --- | --- | --- |
| CC(C)(C)NC(=O)C(c1c(C(=O)O)[nH]c2cc(Cl)ccc12)N(C=O)Cc1ccc(OCc2ccc([N+](=O)[O-])cc2)cc1 (stereo not drawn) | Not Active | Not Active |  |  |  |  |  |  |
| CCOC(=O)c1[nH]c2cc(Cl)ccc2c1C(C(=O)NC(C)(C)C)N(C=O)Cc1ccc(OCc2ccc(C)cc2)cc1 (stereo not drawn) |  |  | 13 | 0.9 | 48.8 | 37.3 |  |  |
| CCOC(=O)c1[nH]c2cc(Cl)ccc2c1C(C(=O)NC(C)(C)C)N(C=O)Cc1ccc(OCc2ccccc2I)cc1 (stereo not drawn) |  |  | 86.3 | 1.3 | 6.2 | 6.3 |  |  |
| CC(C)(C)NC(=O)C(c1ccc(Cl)cc1)N(C=O)Cc1ccc(OCc2ccc(Cl)c(Cl)c2)cc1 (stereo not drawn) | Not Active | Not Active |  |  |  |  |  |  |
| CN(Cc1ccc(OCc2ccccc2Br)cc1)C(C(=O)NC(C)(C)C)c1c(C(=O)O)[nH]c2cc(Cl)ccc12 (stereo not drawn) | Not Active | Not Active |  |  |  |  |  |  |
| CCOC(=O)c1[nH]c2cc(Cl)ccc2c1C(C(=O)NC(C)(C)C)N(C=O)Cc1ccc(OCc2ccc(Cl)c(Cl)c2)cc1 (stereo not drawn) |  |  | 30 | 0.4 | 42.4 | 27.1 |  |  |
| CC(C)(C)NC(=O)C(c1cccc(Cl)c1)N(C=O)Cc1ccc(Cl)cc1 (stereo not drawn) | Not Active | Not Active |  |  |  |  |  |  |
| CC(C)(C)NC(=O)C(c1c(C(=O)O)[nH]c2cc(Cl)ccc12)N(C=O)Cc1ccc(OCc2ccsc2)cc1 (stereo not drawn) | Not Active | Not Active |  |  |  |  |  |  |
| CCOC(=O)c1[nH]c2cc(Cl)ccc2c1C(C(=O)NC(C)(C)C)N(C=O)Cc1ccc(OCCc2ccccc2)cc1 (stereo not drawn) |  |  | 12.6 | 0.7 | 40.2 | 46.6 |  |  |
| O=CN(Cc1ccc(OCc2ccc(F)cc2)cc1)C(C(=O)NC12CC3CC(CC(C3)C1)C2)c1c(C(=O)O)[nH]c2cc(Cl)ccc12 (stereo not drawn) | Not Active | Not Active |  |  |  |  |  |  |
| CCOC(=O)c1[nH]c2cc(Cl)ccc2c1C(C(=O)NC(C)(C)C)N(C=O)Cc1ccc(OCc2ccc(Br)cc2)cc1 (stereo not drawn) |  |  | 37.4 | 0.8 | 19.1 | 42.7 |  |  |
| CC1(C)[C@H]2CC[C@@]1(C)C(NC(=O)C(c1c(C(=O)O)[nH]c3cc(Cl)ccc13)N(C=O)Cc1ccc(OCc3ccccc3Br)cc1)C2 (stereo partly drawn) |  |  |  |  |  |  | 60 | 40 |
| O=CN(Cc1ccc(OCc2ccccc2Br)cc1)C(C(=O)NC1C2CC3CC(C2)CC1C3)c1c(C(=O)O)[nH]c2cc(Cl)ccc12 (stereo not drawn) |  |  |  |  |  |  | 130 | 40 |
| CCOC(=O)c1[nH]c2cc(Cl)ccc2c1C(C(=O)NC(C)(C)C)N(C=O)Cc1ccc(OCc2cccc(Cl)c2)cc1 (stereo not drawn) |  |  | 34.5 | 1.2 | 42.7 | 21.6 |  |  |
| CC(C)(C)NC(=O)[C@H](c1c(C(=O)O)[nH]c2cc(Cl)ccc12)N(C=O)Cc1ccc(OCc2ccccc2Br)cc1 |  |  |  |  |  |  | 200 | 130 |
| CCOC(=O)c1[nH]c2cc(Cl)ccc2c1C(C(=O)NC(C)(C)C)N(C=O)Cc1ccc(OCc2cccc(OC)c2)cc1 (stereo not drawn) |  |  | 84.8 | 0.8 | 6.1 | 8.3 |  |  |
| CC(C)(C)NC(=O)C(c1c(C(=O)O)[nH]c2cc(Cl)ccc12)N(C=O)Cc1ccc(OCc2cccnc2)cc1 (stereo not drawn) | Not Active | Not Active |  |  |  |  |  |  |
| CCOC(=O)c1[nH]c2cc(Cl)ccc2c1C(C(=O)NC(C)(C)C)N(C=O)Cc1ccc(OCc2cc(F)cc(F)c2)cc1 (stereo not drawn) |  |  | 14.1 | 0.5 | 40.2 | 45.2 |  |  |
| CCOC(=O)c1[nH]c2cc(Cl)ccc2c1C(C(=O)NC(C)(C)C)N(C=O)Cc1ccc(NCc2ccc(Br)cc2)cc1 (stereo not drawn) | Not Active |  | 58.6 | 2.6 | 23.6 | 15.2 |  |  |
| CC(C)(C)NC(=O)C(c1c(C(=O)O)[nH]c2cc(Cl)ccc12)N(C=O)Cc1ccc(OCCc2ccccc2)cc1 (stereo not drawn) | Not Active |  | 80.7 | 0.5 | 10.7 | 8.1 |  |  |
| Cn1c(C(=O)O)c(C(C(=O)NC(C)(C)C)N(C=O)Cc2ccc(OCc3ccccc3Br)cc2)c2ccc(Cl)cc21 (stereo not drawn) | Not Active | Not Active |  |  |  |  |  |  |
| CC(C)(C)NC(=O)C(c1c(C(=O)O)[nH]c2cc(Cl)ccc12)N(C=O)Cc1ccc(OCc2ccccc2Br)cc1 (racemic) |  |  | 69.1 | 1 | 14.6 | 15.4 |  |  |
| COc1ccc(C2=N[C@@H](c3ccc(Cl)cc3)[C@@H](c3ccc(Cl)cc3)N2C(=O)N2CCNC(=O)C2)c(OC(C)C)c1 [NUTLIN-3] |  | Not Active | 53 | 1.2 | 18.9 | 26.9 |  |  |
